In US6737383B1, “Herbicidal oxadiazolidines” (priority 1999, dated 2004):

Key:
giant foxtail = assay: Test B pre/postemergence giant foxtail; assay type: in vivo, Setaria faberii
Method in brief: (§1)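 Test chemicals in a non-phytotoxic solvent mixture with surfactant were sprayed preemergence onto planted seeds and postemergence onto plants 2 to 18 cm tall (1- to 4-leaf stage). After twelve to sixteen days in a greenhouse, injury was visually rated against untreated controls from 0 (no effect) to 10 (complete control).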

duck salad = assay: Test B flood test duck salad; assay type: in vivo, Heteranthera limosa
Method in brief: (§2)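 Each value is a visual injury score relative to controls, with 10 meaning complete control and 0 no effect. Evaluation took place twelve to sixteen days after the 2-leaf-stage plants were treated and kept in the greenhouse.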

crabgrass = assay: Test B pre/postemergence crabgrass; assay type: in vivo, Digitaria sanguinalis
Method in brief: as §1

purple nutsedge = assay: Test B pre/postemergence purple nutsedge; assay type: in vivo, Cyperus rotundus
Method in brief: as §1

soybean = assay: Test B pre/postemergence soybean; assay type: in vivo, Glycine max
Method in brief: as §1

velvetleaf = assay: Test B pre/postemergence velvetleaf; assay type: in vivo, Abutilon theophrasti
Method in brief: as §1

wheat = assay: Test B pre/postemergence wheat; assay type: in vivo, Triticum aestivum
Method in brief: as §1

rape = assay: Test B pre/postemergence rape; assay type: in vivo, Brassica napus
Method in brief: as §1

morningglory = assay: Test B pre/postemergence morningglory; assay type: in vivo, Ipomoea hederacea
Method in brief: as §1

wild oat = assay: Test B pre/postemergence wild oat; assay type: in vivo, Avena fatua
Method in brief: as §1

smallflower flatsedge = assay: Test B flood test smallflower flatsedge; assay type: in vivo, Cyperus difformis
Method in brief: as §2

rice = assay: Test B flood test rice; assay type: in vivo, Oryza sativa
Method in brief: as §2

bedstraw = assay: Test B pre/postemergence bedstraw; assay type: in vivo, Galium aparine
Method in brief: as §1

cocklebur = assay: Test B pre/postemergence cocklebur; assay type: in vivo, Xanthium strumarium
Method in brief: as §1

corn = assay: Test B pre/postemergence corn; assay type: in vivo, Zea mays
Method in brief: as §1

pigweed = assay: Test B pre/postemergence pigweed; assay type: in vivo, Amaranthus retroflexus
Method in brief: as §1

[1] = Postemergence, Rate 62 g/ha, scale 0 to 10, 0 is no effect, 10 is complete control
[2] = Postemergence, Rate 250 g/ha, scale 0 to 10, 0 no effect, 10 complete control
[3] = Preemergence, Rate 31 g/ha, visual rating, scale 0 to 10 (0 no effect, 10 complete control)
[4] = Preemergence, Rate 62 g/ha, scale 0 to 10, 0 is no effect, 10 is complete control
[5] = Preemergence, Rate 125 g/ha, scale 0 to 10 (0 no effect, 10 complete control)
[6] = Preemergence, Rate 250 g/ha, scale of 0 to 10 where 0 is no effect and 10 is complete control
[7] = Rate 31 g/ha, Postemergence, scale 0 to 10
[8] = Rate 125 g/ha, Postemergence, scale 0 to 10, 0 no effect, 10 complete control
[9] = Rate 31 g/ha, Postemergence section (flood test species), scale 0 to 10
[10] = Rate 125 g/ha, Postemergence section (flood test species), scale 0 to 10, 0 no effect, 10 complete control
[11] = flood test, listed under Postemergence, Rate 250 g/ha, scale 0 to 10, 0 no effect, 10 complete control

## CCN(C(=O)n1oc(=O)n(-c2ccc(F)cc2F)c1=O)C1CCCCC1 [Compound 23]
Giant foxtail; [1]
  Giant foxtail plant response rating: 0
Giant foxtail; [2]
  Giant foxtail plant response rating: 2
Giant foxtail; [3]
  Giant foxtail plant response rating: 1
Giant foxtail; [4]
  Plant response rating, Giant foxtail: 2
Giant foxtail; [5]
  Plant response rating, Giant foxtail: 2
Giant foxtail; [6]
  Plant response rating, Giant foxtail: 3
Giant foxtail; [7]
  Giant foxtail plant response rating: 0
Giant foxtail; [8]
  Giant foxtail plant response rating: 2
Duck salad; [1]
  Ducksalad plant response rating: 0
Duck salad; [9]
  Ducksalad plant response rating: 0
Duck salad; [10]
  Ducksalad plant response rating: 0
Duck salad; [11]
  Ducksalad plant response rating: 0
crabgrass; [1]
  Crabgrass plant response rating: 0
crabgrass; [2]
  Crabgrass plant response rating: 6
crabgrass; [3]
  Crabgrass plant response rating: 0
crabgrass; [4]
  Plant response rating, Crabgrass: 3
crabgrass; [5]
  Plant response rating, Crabgrass: 3
crabgrass; [6]
  Plant response rating, Crabgrass: 3
crabgrass; [7]
  Crabgrass plant response rating: 0
crabgrass; [8]
  Crabgrass plant response rating: 1
Purple nutsedge; [1]
  Nutsedge plant response rating: 0
Purple nutsedge; [2]
  Nutsedge plant response rating: 0
Purple nutsedge; [3]
  Nutsedge plant response rating: 0
Purple nutsedge; [4]
  Plant response rating, Nutsedge: 0
Purple nutsedge; [5]
  Plant response rating, Nutsedge: 0
Purple nutsedge; [6]
  Plant response rating, Nutsedge: 0
Purple nutsedge; [7]
  Nutsedge plant response rating: 0
Purple nutsedge; [8]
  Nutsedge plant response rating: 0
soybean; [1]
  Soybean plant response rating: 3
soybean; [2]
  Soybean plant response rating: 4
soybean; [3]
  Soybean plant response rating: 0
soybean; [4]
  Plant response rating, Soybean: 0
soybean; [5]
  Plant response rating, Soybean: 0
soybean; [6]
  Plant response rating, Soybean: 0
soybean; [8]
  Soybean plant response rating: 3
velvetleaf; [1]
  Velvetleaf plant response rating: 0
velvetleaf; [2]
  Velvetleaf plant response rating: 0
velvetleaf; [3]
  Velvetleaf plant response rating: 0
velvetleaf; [4]
  Plant response rating, Velvetleaf: 0
velvetleaf; [5]
  Plant response rating, Velvetleaf: 0
velvetleaf; [6]
  Plant response rating, Velvetleaf: 0
velvetleaf; [8]
  Velvetleaf plant response rating: 0
wheat; [1]
  Wheat plant response rating: 0
wheat; [2]
  Wheat plant response rating: 0
wheat; [3]
  Wheat plant response rating: 0
wheat; [4]
  Plant response rating, Wheat: 0
wheat; [5]
  Plant response rating, Wheat: 0
wheat; [6]
  Plant response rating, Wheat: 0
wheat; [8]
  Wheat plant response rating: 0
rape; [1]
  Rape plant response rating: 0
rape; [2]
  Rape plant response rating: 0
rape; [3]
  Rape plant response rating: 0
rape; [4]
  Plant response rating, Rape: 0
rape; [5]
  Plant response rating, Rape: 0
rape; [6]
  Plant response rating, Rape: 0
rape; [7]
  Rape plant response rating: 0
rape; [8]
  Rape plant response rating: 0
morningglory; [1]
  Morningglory plant response rating: 1
morningglory; [2]
  Morningglory plant response rating: 10
morningglory; [3]
  Morningglory plant response rating: 0
morningglory; [4]
  Plant response rating, Morningglory: 0
morningglory; [5]
  Plant response rating, Morningglory: 0
morningglory; [6]
  Plant response rating, Morningglory: 0
morningglory; [7]
  Morningglory plant response rating: 0
morningglory; [8]
  Morningglory plant response rating: 8
Wild oat; [1]
  Wild oats plant response rating: 0
Wild oat; [2]
  Wild oats plant response rating: 0
Wild oat; [3]
  Wild oats plant response rating: 0
Wild oat; [5]
  Plant response rating, Wild oats: 0
Wild oat; [6]
  Plant response rating, Wild oats: 0
Wild oat; [8]
  Wild oats plant response rating: 0
Smallflower flatsedge; [1]
  S. Flatsedge plant response rating: 0
Smallflower flatsedge; [10]
  S. Flatsedge plant response rating: 0
Smallflower flatsedge; [11]
  S. Flatsedge plant response rating: 0
rice; [1]
  Rice plant response rating: 0
rice; [9]
  Rice plant response rating: 0
rice; [10]
  Rice plant response rating: 0
rice; [11]
  Rice plant response rating: 0
bedstraw; [1]
  Bedstraw plant response rating: 0
bedstraw; [2]
  Bedstraw plant response rating: 0
bedstraw; [3]
  Bedstraw plant response rating: 0
bedstraw; [4]
  Plant response rating, Bedstraw: 0
bedstraw; [5]
  Plant response rating, Bedstraw: 0
bedstraw; [6]
  Plant response rating, Bedstraw: 0
bedstraw; [7]
  Bedstraw plant response rating: 0
bedstraw; [8]
  Bedstraw plant response rating: 0
cocklebur; [1]
  Cocklebur plant response rating: 0
cocklebur; [2]
  Cocklebur plant response rating: 0
cocklebur; [3]
  Cocklebur plant response rating: 0
cocklebur; [4]
  Plant response rating, Cocklebur: 0
cocklebur; [5]
  Plant response rating, Cocklebur: 0
cocklebur; [7]
  Cocklebur plant response rating: 0
cocklebur; [8]
  Cocklebur plant response rating: 0
corn; [1]
  Corn plant response rating: 0
corn; [2]
  Corn plant response rating: 0
corn; [3]
  Corn plant response rating: 0
corn; [4]
  Plant response rating, Corn: 0
corn; [5]
  Plant response rating, Corn: 0
corn; [6]
  Plant response rating, Corn: 0
corn; [7]
  Corn plant response rating: 0
corn; [8]
  Corn plant response rating: 0
pigweed; [1]
  Redroot pigweed plant response rating: 0
pigweed; [2]
  Redroot pigweed plant response rating: 0
pigweed; [3]
  Redroot pigweed plant response rating: 0
pigweed; [4]
  Plant response rating, Redroot pigweed: 0
pigweed; [5]
  Plant response rating, Redroot pigweed: 0
pigweed; [6]
  Plant response rating, Redroot pigweed: 0
pigweed; [7]
  Redroot pigweed plant response rating: 0
pigweed; [8]
  Redroot pigweed plant response rating: 0
